Source: ChEMBL document CHEMBL1201862, “PubChem BioAssay data set” (2004)
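In this assay, cells in 96-well plates receive the compound at five concentrations for 48 hours. Endpoints are linearly interpolated between the surrounding concentrations. GI50: concentration for 50% inhibition of growth.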 Calls of active or inactive are those of the source. Cut-off read from the data, not from the text of the source: active = GI50 up to about 1.1 µM and inactive = higher.

How the values were obtained:
Experiment in all cases: growth of human tumour cells (NCI), 48 h
[1] = test system: SK-OV-3
[2] = test system: OVCAR-4
[3] = test system: CAKI-1
[4] = test system: EKVX
[5] = test system: OVCAR-3
[6] = test system: MDA-MB-435
[7] = test system: TK-10
[8] = test system: HL-60
[9] = test system: SF-295
[10] = test system: HOP-62
[11] = test system: SF-268
[12] = test system: LOX IMVI
[13] = test system: Malme-3M
[14] = test system: UACC-62
[15] = test system: U-251
[16] = test system: OVCAR-5
[17] = test system: ACHN
[18] = test system: NCI-H522
[19] = test system: RPMI-8226
[20] = test system: PC-3
[21] = test system: IGROV-1
[22] = test system: T47D
[23] = test system: MOLT-4
[24] = test system: CCRF-CEM
[25] = test system: MDA-MB-231
[26] = test system: A549
[27] = test system: HCC 2998
[28] = test system: HCT-116
[29] = test system: UACC-257
[30] = test system: A498
[31] = test system: NCI-H460
[32] = test system: SR
[33] = test system: 786-0
[34] = test system: M14
[35] = test system: NCI-H23
[36] = test system: UO-31
[37] = test system: K562
[38] = test system: HT-29
[39] = test system: BT-549
[40] = test system: HOP-92
[41] = test system: SN12C
[42] = test system: SNB-19
[43] = test system: Hs-578T
[44] = test system: MCF7
[45] = test system: MDA-N
[46] = test system: DU-145
[47] = test system: SK-MEL-5
[48] = test system: RXF 393
[49] = test system: SW-620
[50] = test system: KM12
[51] = test system: SK-MEL-2
[52] = test system: HCT-15
[53] = test system: COLO 205
[54] = test system: OVCAR-8
[55] = test system: NCI/ADR-RES
[56] = test system: SNB-75
[57] = test system: SF-539
[58] = test system: SK-MEL-28
[59] = test system: NCI-H226

Brc1ccc(C2(N3CCCCC3)CCCCC2)s1
GI50 [1]: 45.2 µM (inactive)
GI50 [2]: 40.7 µM (inactive)
GI50 [3]: > 100 µM (inactive)
GI50 [4]: 76.6 µM (inactive)
GI50 [5]: 38.7 µM (inactive)
GI50 [6]: 23.9 µM (inactive)
GI50 [7]: 37.5 µM (inactive)
GI50 [8]: 19.4 µM (inactive)
GI50 [9]: 35.6 µM (inactive)
GI50 [10]: 57.5 µM (inactive)
GI50 [11]: 48.9 µM (inactive)
GI50 [12]: 11.7 µM (inactive)
GI50 [13]: 29.3 µM (inactive)
GI50 [14]: 35.5 µM (inactive)
GI50 [15]: 33.1 µM (inactive)
GI50 [16]: 67 µM (inactive)
GI50 [17]: 51.1 µM (inactive)
GI50 [18]: 27.3 µM (inactive)
GI50 [19]: 19.6 µM (inactive)
GI50 [20]: 34.1 µM (inactive)
GI50 [21]: 22.2 µM (inactive)
GI50 [22]: 11.9 µM (inactive)
GI50 [23]: 16.4 µM (inactive)
GI50 [24]: 18.3 µM (inactive)
GI50 [25]: 32 µM (inactive)
GI50 [26]: 39 µM (inactive)
GI50 [27]: 15.7 µM (inactive)
GI50 [28]: > 100 µM (inactive)
GI50 [29]: 29.8 µM (inactive)
GI50 [30]: 66.7 µM (inactive)
GI50 [31]: 26.7 µM (inactive)
GI50 [32]: 19.5 µM (inactive)
GI50 [33]: > 100 µM (inactive)
GI50 [34]: 24.4 µM (inactive)
GI50 [35]: 37.3 µM (inactive)
GI50 [36]: 30.8 µM (inactive)
GI50 [37]: 21.1 µM (inactive)
GI50 [38]: 23.5 µM (inactive)
GI50 [39]: 30.5 µM (inactive)
GI50 [40]: 19.7 µM (inactive)
GI50 [41]: > 100 µM (inactive)
GI50 [42]: 73.1 µM (inactive)
GI50 [43]: 36.1 µM (inactive)
GI50 [44]: 30.9 µM (inactive)
GI50 [45]: 79.8 µM (inactive)
GI50 [46]: 56.6 µM (inactive)
GI50 [47]: 0.561 µM (active)
GI50 [48]: 14.3 µM (inactive)
GI50 [49]: 31.8 µM (inactive)
GI50 [50]: 28.4 µM (inactive)
GI50 [51]: 19 µM (inactive)

COc1ccc(C2=NN(C(=O)c3cccnc3)C(O)(c3cc(F)c(Cl)cc3Cl)C2)cc1OC (stereo unspecified)
GI50 [1]: 26.1 µM (inactive)
GI50 [2]: 15.6 µM (inactive)
GI50 [52]: 14.8 µM
GI50 [3]: 24.1 µM (inactive)
GI50 [4]: 19.6 µM (inactive)
GI50 [5]: 11.5 µM (inactive)
GI50 [6]: 15.2 µM (inactive)
GI50 [53]: 12.3 µM (inactive)
GI50 [54]: 14.5 µM (inactive)
GI50 [7]: 30.4 µM (inactive)
GI50 [8]: 12.8 µM (inactive)
GI50 [55]: 14.8 µM (inactive)
GI50 [9]: 15.5 µM (inactive)
GI50 [10]: 19 µM (inactive)
GI50 [11]: 17.3 µM (inactive)
GI50 [12]: 13.9 µM (inactive)
GI50 [56]: 23.5 µM (inactive)
GI50 [13]: 22.6 µM (inactive)
GI50 [15]: 13.8 µM (inactive)
GI50 [16]: 30.2 µM (inactive)
GI50 [17]: 21.3 µM (inactive)
GI50 [18]: 13.8 µM (inactive)
GI50 [19]: 13.4 µM (inactive)
GI50 [20]: 12.6 µM (inactive)
GI50 [21]: 8.11 µM (inactive)
GI50 [22]: 24 µM (inactive)
GI50 [57]: 16.1 µM (inactive)
GI50 [23]: 8.97 µM (inactive)
GI50 [24]: 11.4 µM (inactive)
GI50 [25]: 13.9 µM (inactive)
GI50 [26]: 20.4 µM (inactive)
GI50 [28]: 14.8 µM (inactive)
GI50 [29]: 13.6 µM (inactive)
GI50 [31]: 15.2 µM (inactive)
GI50 [32]: 7.28 µM (inactive)
GI50 [33]: 22 µM (inactive)
GI50 [34]: 15.8 µM (inactive)
GI50 [35]: 20.4 µM (inactive)
GI50 [36]: 17.5 µM (inactive)
GI50 [58]: 19.5 µM (inactive)
GI50 [37]: 17.4 µM (inactive)
GI50 [38]: 12.3 µM (inactive)
GI50 [39]: 19.3 µM (inactive)
GI50 [40]: 14.1 µM (inactive)
GI50 [41]: 15.3 µM (inactive)
GI50 [42]: 29.9 µM (inactive)
GI50 [43]: 19.4 µM (inactive)
GI50 [45]: 21.3 µM (inactive)
GI50 [46]: 27.9 µM (inactive)
GI50 [47]: 12.1 µM (inactive)
GI50 [59]: 12.8 µM (inactive)
GI50 [48]: 15.5 µM (inactive)
GI50 [49]: 17.9 µM (inactive)
GI50 [50]: 19.1 µM (inactive)
GI50 [51]: 14.8 µM (inactive)
